Converted amounts (≈) assume the structure as drawn.
Legend:
physchem = format: physicochemical; details: water
From the text: This improved water-solubility enables 6-deoxyacyclovir to be used in a greater variety of aqueous pharmaceutical formulations which require some solubilisation of the drug.

[1] = Toxicity study in beagle dogs, per os; format: in vivo; details: 40mg/kg/day for 5 consecutive days, sacrificed at end of treatment or after a 2-week post-dose period
Experimental: Two male and 2 female beagle dogs were given 6-deoxyacyclovir per os ([…] daily for 5 consecutive days) at a dose level of 40mg/kg/day. There were no effects in 1 male and 1 female sacrificed at the end of the treatment period or in 1 male and 1 female sacrificed after a 2-week post-dose period.

[2] = test system: ICI strain of herpes simplex virus Type 1; experiment: Antiviral activity in mice infected intracerebrally with herpes simplex virus; format: in vivo, CD1 mice; details: for Mean Reciprocal Survival times / Survival Times (Days): 100mg/kg/dose; for Mean Reciprocal Survival times: virus controls 0.407; for Survival Times (Days): 2-3 hours after infection and twice daily for 4 days, observed over 14 days, groups of 10 mice
Experimental: The mice were divided into groups of 10, one group acting as untreated virus controls and the other groups receiving respectively (A) acyclovir at 100mg/kg/dose (i) subcutaneously (s.c.) (ii) orally (iii) intraperitoneally (i.p.) (B) the compound of Example 1 (6-deoxyacyclovir) at 100mg/kg/dose i) subcutaneously (s.c.) ii) orally iii) intraperitoneally (i.p.). The treatment groups received dosages of the drug 2-3 hours after infection and twice daily for 4 days. Observations were made over 14 days survival times were recorded.

xanthine oxidase = biological target: T1, xanthine oxidase (Bos taurus, UniProt P80457); experiment: Oxidation by xanthine oxidase (enzyme studies); format: biochemical; details: xanthine oxidase from bovine milk; compared with 2-aminopurine
T1 construct: xanthine oxidase from bovine milk; from tissue; host or cells: bovine milk
T1 sequence (P80457 whole entry): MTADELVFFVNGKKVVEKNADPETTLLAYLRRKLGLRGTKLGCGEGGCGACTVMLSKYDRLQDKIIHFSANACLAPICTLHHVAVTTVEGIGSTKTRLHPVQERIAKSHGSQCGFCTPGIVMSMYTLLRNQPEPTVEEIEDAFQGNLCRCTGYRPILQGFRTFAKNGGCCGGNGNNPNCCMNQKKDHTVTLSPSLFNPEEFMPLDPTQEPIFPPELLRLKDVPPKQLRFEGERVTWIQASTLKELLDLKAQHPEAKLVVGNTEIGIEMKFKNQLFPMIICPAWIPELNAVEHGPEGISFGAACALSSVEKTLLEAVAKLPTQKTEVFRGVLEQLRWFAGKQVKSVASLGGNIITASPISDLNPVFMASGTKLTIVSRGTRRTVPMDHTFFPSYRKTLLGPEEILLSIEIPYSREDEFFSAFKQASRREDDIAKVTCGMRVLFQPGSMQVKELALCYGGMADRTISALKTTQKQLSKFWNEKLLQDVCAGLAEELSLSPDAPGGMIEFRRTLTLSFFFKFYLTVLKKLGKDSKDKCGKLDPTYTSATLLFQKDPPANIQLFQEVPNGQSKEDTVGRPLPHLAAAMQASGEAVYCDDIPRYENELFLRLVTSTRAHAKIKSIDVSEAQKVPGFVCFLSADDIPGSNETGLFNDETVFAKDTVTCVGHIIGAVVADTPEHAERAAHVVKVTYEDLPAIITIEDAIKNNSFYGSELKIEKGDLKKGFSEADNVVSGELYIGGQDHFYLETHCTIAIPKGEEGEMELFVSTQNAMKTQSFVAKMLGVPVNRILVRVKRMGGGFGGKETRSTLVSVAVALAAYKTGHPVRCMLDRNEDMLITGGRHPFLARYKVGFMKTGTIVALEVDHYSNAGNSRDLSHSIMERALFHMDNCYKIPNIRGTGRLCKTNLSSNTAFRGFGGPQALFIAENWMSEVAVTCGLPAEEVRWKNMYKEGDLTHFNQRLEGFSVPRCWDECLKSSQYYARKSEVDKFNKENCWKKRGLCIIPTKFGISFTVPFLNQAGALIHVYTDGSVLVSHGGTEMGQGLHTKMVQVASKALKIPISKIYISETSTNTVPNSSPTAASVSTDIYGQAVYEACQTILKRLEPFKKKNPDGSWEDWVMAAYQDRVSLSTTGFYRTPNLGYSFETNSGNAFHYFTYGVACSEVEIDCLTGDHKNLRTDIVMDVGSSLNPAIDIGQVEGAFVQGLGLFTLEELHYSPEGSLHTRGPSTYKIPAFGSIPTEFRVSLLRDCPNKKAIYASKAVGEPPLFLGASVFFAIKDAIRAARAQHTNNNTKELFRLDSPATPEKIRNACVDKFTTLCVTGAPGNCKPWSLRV
From the text: The discovery that the 6-hydrogen purine above can be readily converted into its corresponding 6-hydroxy analogue is surprising since in previous studies with xanthine oxidase from bovine milk (H. Lettre et al (1967) Biochem. Pharmacol., 16, 1747-1755; T. A. Krenitsky et al (1972) Arch. Biophys., 150, 585-599), it was shown that 9-substitution obliterates or greatly diminishes the rate at which a variety of purines are oxidised.

[3] = Urinary excretion of acyclovir after oral dosing of rats (radioimmunoassay); format: in vivo, Long Evans male rats; details: rat, dose 25 mg/kg, urine samples, read-out: %Dose Excreted as Acyclovir
Experimental: The following experiments carried out to determine the urinary excretion and plasma levels of acyclovir after oral dosing of rats with acyclovir, 6-deoxyacyclovir and the 6-amino analogue thereof i.e. 2,6-diamino-9-(2-hydroxyethoxymethyl)-purine, hereinafter referred to as aminoacyclovir.
Long Evans male rats were dosed by intragastric needle with the drug and placed in metabolic cages which separated urine from faeces. The collected urine and plasma samples were analyzed for acyclovir content by a radioimmunoassay.

Structure (SMILES) | solubility (physchem) [mg/mL] | effects (toxicity) [1] | antiviral action compared with acyclovir ([2]; administered orally) | Mean Reciprocal Survival times ([2]; i.p.) | Survival Times (Days) ([2]; oral) | Mean Reciprocal Survival times ([2]; oral) | Mean Reciprocal Survival times ([2]; s.c.) | rate of oxidation by the enzyme (xanthine oxidase) | dose excreted at 48 h [3] [%] | Survival Times (Days) ([2]; i.p.)
Nc1ncc2ncn(COCCO)c2n1 [6-Deoxyacyclovir, 2-Amino-9-(2-hydroxyethoxymethyl)-9H-purine] | 50 (≈ 239 mM) | no effects | more effective action than acyclovir | 0.233 | 1+2 1+4 2+5 3+6 1+8 1 survivor | 0.186 | 0.289 | faster rate than the 9- unsubstituted purine | – | –
Nc1nc2c(ncn2COCCO)c(=O)[nH]1 [Acyclovir, 9-(2-hydroxyethoxymethyl)guanine, reference compound] | 1.23 (≈ 5.46 mM) | – | – | 0.242 | – | 0.325 | 0.261 | – | 19.2 | 2+2 2+4 2+5 2+7 1 survivor
